# According to patent US9555014B2, “Therapeutic regimens” (Radius Health, Inc., priority 2010, dated 2017):
# Counter-ions that a name gives are not always drawn.
# Assays:
# endometrium = assay: Preclinical rat models measuring estrogenic agonist effects on the endometrium; type: in vivo
# Source text: The results of a phase 2a clinical study assessing the effects of the selective estrogen receptor modulator (SERM) (R)-6-(2-(ethyl(4-(2-(ethylamino)ethyl)benzyl)amino)-4-methoxyphenyl)-5,6,7,8-tetrahydronaphthalen-2-ol on women suffering from hot flushes are reported herein.
# [1] = system: postmenopausal women with frequent, moderate to severe vasomotor symptoms (hot flashes); assay: Phase 2a study: hot flash frequency, severity and composite score; type: in vivo, human (postmenopausal women); settings: for Composite Scores by Week: mean; for Mean Severity Scores by Week / Weekly Mean Frequency of Mild, Moderate and Severe Hot Flash Numbers / Weekly Mean Frequency of Moderate and Severe Hot Flash Numbers: mean (SD)
# Source text: A phase 2a study was undertaken to assess the effect of (R)-6-(2-(ethyl(4-(2-(ethylamino)ethyl)benzyl)amino)-4-methoxyphenyl)-5,6,7,8-tetrahydronaphthalen-2-ol dihydrochloride (referred to as “drug” in tables below) to alleviate hot flashes in postmenopausal women. The study design and objectives are detailed below.
# This is a randomized, placebo-controlled, double-blind, parallel-group, Phase 2, multi-center, dose-finding study to evaluate the effects of (R)-6-(2-(ethyl(4-(2-(ethylamino)ethyl)benzyl)amino)-4-methoxyphenyl)-5,6,7,8-tetrahydronaphthalen-2-ol dihydrochloride in the treatment of vasomotor symptoms in postmenopausal women.
# A total of 100 eligible patients will be randomized to receive one of 5 blinded treatment regimens. (R)-6-(2-(ethyl(4-(2-(ethylamino)ethyl)benzyl)amino)-4-methoxyphenyl)-5,6,7,8-tetrahydronaphthalen-2-ol dihydrochloride at doses 0, 10, 25, 50 or 100 mg will be dosed for 28-days.
# Patients will document in real time hot flash frequency and severity according to a predetermined scale, in the provided electronic or paper Study Diary. Study Diary entries of hot flash frequency and severity and associated symptoms will be reviewed at each study visit. Serum markers of estrogen effect will be measured at specific study visits while on treatment.
# The efficacy endpoints assessed are: • Change in frequency of hot flashes over time • Change in severity of hot flashes over time; • Change in composite score of hot flashes over time (frequency×severity)
# (R)-6-(2-(ethyl(4-(2-(ethylamino)ethyl)benzyl)amino)-4-methoxyphenyl)-5,6,7,8-tetrahydronaphthalen-2-ol dihydrochloride was provided by sponsor in capsule form for oral administration. All doses (0, 10, 25, 50 and 100 mg) were provided as identical presentations. Each patient was provided with 2 containers of 28-capsules each at the start of treatment and took one capsule from each container every day for 28-days. Placebo contained the same excipients as active medication, but without (R)-6-(2-(ethyl(4-(2-(ethylamino)ethyl)benzyl)amino)-4-methoxyphenyl)-5,6,7,8-tetrahydronaphthalen-2-ol dihydrochloride. The patients were instructed to take the capsules orally in the fasted state (morning).
# Changes in the efficacy endpoints of frequency, severity, and composite score of hot flashes over time; associated hot flash symptoms (palpitations, insomnia, joint aches, and headaches), PD markers of estrogen effect (FSH, LH, and lipid profile), drug levels, and MRS were to be summarized using descriptive statistics. Frequency, severity, and composite score of hot flashes over time were to be analyzed using repeated measures analysis of variance (ANOVA) with factors for treatment (treatment groups), time (study day) and their interaction. A linear trend test for treatment groups (placebo, and 10, 25, 50, 100 mg doses of drug) and for study day as well as any potential interaction between the two was to be included as part of the analyses by including both dose and time as continuous variables in the ANOVA model. Pair-wise comparisons of change from baseline were to be tested between the placebo group and each drug dose group for each timepoint; the mean difference together with a 95% confidence interval of the difference was to be presented for placebo compared with each active treatment group. Nominal p-values at Week 4 were to be presented. In addition, graphical presentations of mean (±standard error of the mean) and percent group responses over time together with repeated measures ANOVA to assess potential trend in responses over time in each dose group were to be presented. For the associated vasomotor symptoms (palpitations, insomnia, joint aches, and headaches collected in the patient diaries), patient and event frequencies were to be summarized by treatment week and treatment group.
# Hot flashes were also scored according to their severity with a mild hot flash scored a “1”, a moderate hot flash scored a “2” and a severe hot flash scored a “3”. […]
smiles,measurement,setting,value
"CCNCCc1ccc(CN(CC)c2cc(OC)ccc2[C@@H]2CCc3cc(O)ccc3C2)cc1 [drug, (R)-6-(2-(ethyl(4-(2-(ethylamino)ethyl)benzyl)amino)-4-methoxyphenyl)-5,6,7,8-tetrahydronaphthalen-2-ol dihydrochloride]",estrogen agonist stimulation effects on the endometrium,endometrium,negligible estrogen agonist stimulation effects
same,Composite Scores by Week,"[1]; 10 mg daily PO, Week 1, ITT",73.68
same,Mean Severity Scores by Week,"[1]; 10 mg daily PO, Week 1, ITT",1.99 (0.460)
same,"Weekly Mean Frequency of Mild, Moderate and Severe Hot Flash Numbers","[1]; 10 mg daily PO, Week 1, ITT",36.0 (18.97)
same,Weekly Mean Frequency of Moderate and Severe Hot Flash Numbers,"[1]; 10 mg daily PO, Week 1, ITT",30.4 (18.92)
same,Composite Scores by Week,"[1]; 10 mg daily PO, Week 2, ITT",47.75
same,Mean Severity Scores by Week,"[1]; 10 mg daily PO, Week 2, ITT",1.80 (0.514)
same,"Weekly Mean Frequency of Mild, Moderate and Severe Hot Flash Numbers","[1]; 10 mg daily PO, Week 2, ITT",27.2 (15.16)
same,Weekly Mean Frequency of Moderate and Severe Hot Flash Numbers,"[1]; 10 mg daily PO, Week 2, ITT",18.5 (13.34)
same,Composite Scores by Week,"[1]; 10 mg daily PO, Week 3, ITT",37.15
same,Mean Severity Scores by Week,"[1]; 10 mg daily PO, Week 3, ITT",1.84 (0.570)
same,"Weekly Mean Frequency of Mild, Moderate and Severe Hot Flash Numbers","[1]; 10 mg daily PO, Week 3, ITT",21.2 (12.99)
same,Weekly Mean Frequency of Moderate and Severe Hot Flash Numbers,"[1]; 10 mg daily PO, Week 3, ITT",14.5 (11.92)
same,Composite Scores by Week,"[1]; 10 mg daily PO, Week 4, ITT",34.35
same,Mean Severity Scores by Week,"[1]; 10 mg daily PO, Week 4, ITT",1.86 (0.562)
same,"Weekly Mean Frequency of Mild, Moderate and Severe Hot Flash Numbers","[1]; 10 mg daily PO, Week 4, ITT",19.1 (12.95)
same,Weekly Mean Frequency of Moderate and Severe Hot Flash Numbers,"[1]; 10 mg daily PO, Week 4, ITT",13.4 (11.54)
same,reduction in severity of hot flashes compared with other groups,"[1]; 10 mg dose vs placebo and 25, 50, 100 mg, Table 8 / FIG. 3",greatest reduction in severity of hot flashes at all time points
same,reduction in moderate and severe hot flashes compared with other groups,"[1]; 10 mg group vs placebo and 25, 50, 100 mg, Table 6 / FIG. 1",greatest reduction in hot flashes at each weekly time point
same,"reduction in all (mild, moderate and severe) hot flashes compared with other groups","[1]; 10 mg group vs placebo and 25, 50, 100 mg, Table 7",greatest reduction in hot flashes at each weekly time point
same,composite score reduction compared with other groups,"[1]; 10 mg group vs placebo and 25, 50, 100 mg, Table 9 / FIG. 4",greatest composite score reduction at each weekly timepoint
same,"Weekly Mean Frequency of Mild, Moderate and Severe Hot Flash Numbers","[1]; 10 mg group, Baseline, ITT",66.0 (13.89)
same,Weekly Mean Frequency of Moderate and Severe Hot Flash Numbers,"[1]; 10 mg group, Baseline, ITT",63.1 (14.23)
same,Mean Severity Scores by Week,"[1]; 10 mg group, Baseline, ITT, mild=1, moderate=2, severe=3",2.37 (0.347)
same,Composite Scores by Week,"[1]; 10 mg group, Baseline, ITT, frequency x severity",156.45
same,Composite Scores by Week,"[1]; 25 mg daily PO, Week 1, ITT",142.71
same,Mean Severity Scores by Week,"[1]; 25 mg daily PO, Week 1, ITT",2.12 (0.392)
same,"Weekly Mean Frequency of Mild, Moderate and Severe Hot Flash Numbers","[1]; 25 mg daily PO, Week 1, ITT",64.4 (48.88)
same,Weekly Mean Frequency of Moderate and Severe Hot Flash Numbers,"[1]; 25 mg daily PO, Week 1, ITT",57.7 (50.49)
same,Composite Scores by Week,"[1]; 25 mg daily PO, Week 2, ITT",102.82
same,Mean Severity Scores by Week,"[1]; 25 mg daily PO, Week 2, ITT",2.09 (0.447)
same,"Weekly Mean Frequency of Mild, Moderate and Severe Hot Flash Numbers","[1]; 25 mg daily PO, Week 2, ITT",48.0 (48.80)
same,Weekly Mean Frequency of Moderate and Severe Hot Flash Numbers,"[1]; 25 mg daily PO, Week 2, ITT",42.3 (49.73)
same,Composite Scores by Week,"[1]; 25 mg daily PO, Week 3, ITT",102.59
same,Mean Severity Scores by Week,"[1]; 25 mg daily PO, Week 3, ITT",2.14 (0.408)
same,"Weekly Mean Frequency of Mild, Moderate and Severe Hot Flash Numbers","[1]; 25 mg daily PO, Week 3, ITT",46.6 (56.27)
same,Weekly Mean Frequency of Moderate and Severe Hot Flash Numbers,"[1]; 25 mg daily PO, Week 3, ITT",43.3 (57.15)
same,Composite Scores by Week,"[1]; 25 mg daily PO, Week 4, ITT",89.59
same,Mean Severity Scores by Week,"[1]; 25 mg daily PO, Week 4, ITT",2.06 (0.404)
same,"Weekly Mean Frequency of Mild, Moderate and Severe Hot Flash Numbers","[1]; 25 mg daily PO, Week 4, ITT",42.4 (53.18)
same,Weekly Mean Frequency of Moderate and Severe Hot Flash Numbers,"[1]; 25 mg daily PO, Week 4, ITT",37.4 (54.76)
same,"Weekly Mean Frequency of Mild, Moderate and Severe Hot Flash Numbers","[1]; 25 mg group, Baseline, ITT",75.8 (46.46)
